Test results taken from ChEMBL document CHEMBL1212804, “Comparative study of the mutant prevention concentrations of moxifloxacin, levofloxacin, and gemifloxacin against pneumococci” (2010).
Values after ≈ are worked out from the molar mass of the structure shown.

What was measured:
Format in all cases: functional
[1] = Ratio of AUC to MIC in Streptococcus pneumoniae ATCC 49619
Streptococcus pneumoniae [2] = assay: Antibacterial activity against Streptococcus pneumoniae ATCC 49619
Streptococcus pneumoniae [3] = assay: Antibacterial activity against Streptococcus pneumoniae ATCC 49619 assessed as 50% mutant prevention concentration
Streptococcus pneumoniae [4] = assay: Antibacterial activity against Streptococcus pneumoniae ATCC 49619 assessed as 90% mutant prevention concentration
Streptococcus pneumoniae [5] = assay: Ratio of 50% mutant prevention concentration to MIC50 in Streptococcus pneumoniae ATCC 49619
Streptococcus pneumoniae [6] = assay: Ratio of 90% mutant prevention concentration to MIC90 in Streptococcus pneumoniae ATCC 49619
Streptococcus pneumoniae [7] = assay: Antibacterial activity against Streptococcus pneumoniae 1072 by standard agar dilution method
Streptococcus pneumoniae [8] = assay: Antibacterial activity against Streptococcus pneumoniae 1149 by standard agar dilution method
Streptococcus pneumoniae [9] = assay: Antibacterial activity against Streptococcus pneumoniae 1151 by standard agar dilution method
Streptococcus pneumoniae [10] = assay: Antibacterial activity against Streptococcus pneumoniae 3321 by standard agar dilution method
Streptococcus pneumoniae [11] = assay: Antibacterial activity against Streptococcus pneumoniae 1058 by standard agar dilution method
Streptococcus pneumoniae [12] = assay: Antibacterial activity against Streptococcus pneumoniae 1065 by standard agar dilution method
Streptococcus pneumoniae [13] = assay: Antibacterial activity against Streptococcus pneumoniae 1135 by standard agar dilution method
Streptococcus pneumoniae [14] = assay: Antibacterial activity against Streptococcus pneumoniae 1072 assessed as mutant prevention concentration by standard agar dilution method
Streptococcus pneumoniae [15] = assay: Antibacterial activity against Streptococcus pneumoniae 1149 assessed as mutant prevention concentration by standard agar dilution method
Streptococcus pneumoniae [16] = assay: Antibacterial activity against Streptococcus pneumoniae 1151 assessed as mutant prevention concentration by standard agar dilution method
Streptococcus pneumoniae [17] = assay: Antibacterial activity against Streptococcus pneumoniae 3321 assessed as mutant prevention concentration by standard agar dilution method
Streptococcus pneumoniae [18] = assay: Antibacterial activity against Streptococcus pneumoniae 1058 assessed as mutant prevention concentration by standard agar dilution method
Streptococcus pneumoniae [19] = assay: Antibacterial activity against Streptococcus pneumoniae 1065 assessed as mutant prevention concentration by standard agar dilution method
Streptococcus pneumoniae [20] = assay: Antibacterial activity against Streptococcus pneumoniae 1135 assessed as mutant prevention concentration by standard agar dilution method

SMILES | MIC50 (Streptococcus pneumoniae [2]) [µg/mL] | MIC90 (Streptococcus pneumoniae [2]) [µg/mL] | Activity (Streptococcus pneumoniae [3]) [µg/mL] | Activity (Streptococcus pneumoniae [4]) [µg/mL] | Ratio (Streptococcus pneumoniae [5]) | Ratio (Streptococcus pneumoniae [6]) | MIC (Streptococcus pneumoniae [7]) [µg/mL] | MIC (Streptococcus pneumoniae [8]) [µg/mL] | MIC (Streptococcus pneumoniae [9]) [µg/mL] | MIC (Streptococcus pneumoniae [10]) [µg/mL] | MIC (Streptococcus pneumoniae [11]) [µg/mL] | MIC (Streptococcus pneumoniae [12]) [µg/mL] | MIC (Streptococcus pneumoniae [13]) [µg/mL] | Activity (Streptococcus pneumoniae [14]) [µg/mL] | Activity (Streptococcus pneumoniae [15]) [µg/mL] | Activity (Streptococcus pneumoniae [16]) [µg/mL] | Activity (Streptococcus pneumoniae [17]) [µg/mL] | Activity (Streptococcus pneumoniae [18]) [µg/mL] | Activity (Streptococcus pneumoniae [19]) [µg/mL] | Activity (Streptococcus pneumoniae [20]) [µg/mL] | further results
O=C(O)c1cn(C2CC2)c2cc(N3CCNCC3)c(F)cc2c1=O | – | – | – | – | – | – | – | – | – | – | – | – | – | – | – | – | – | – | – | – | RatioAUC/MIC [1]: 30
CO/N=C1\CN(c2nc3c(cc2F)c(=O)c(C(=O)O)cn3C2CC2)CC1CN (configuration not stated) [GEMIFLOXACIN] | 0.125 (≈ 0.321 µM) | 1 (≈ 2.57 µM) | 0.5 | 4 | 4 | 4 | 1 (≈ 2.57 µM) | 0.5 (≈ 1.28 µM) | 1 (≈ 2.57 µM) | 0.125 (≈ 0.321 µM) | 0.125 (≈ 0.321 µM) | 0.125 (≈ 0.321 µM) | 0.5 (≈ 1.28 µM) | 8 | >8 | 8 | 2 | 1 | 4 | 4 | –
C[C@H]1COc2c(N3CCN(C)CC3)c(F)cc3c(=O)c(C(=O)O)cn1c23.C[C@H]1COc2c(N3CCN(C)CC3)c(F)cc3c(=O)c(C(=O)O)cn1c23.O [LEVOFLOXACIN] | 2 | 32 | 4 | 64 | – | – | – | – | – | – | – | – | – | 256 | >64 | 32 | 32 | 64 | 32 | 128 | –
COc1c(N2C[C@@H]3CCCN[C@@H]3C2)c(F)cc2c(=O)c(C(=O)O)cn(C3CC3)c12 [MOXIFLOXACIN] | 0.5 (≈ 1.25 µM) | 4 (≈ 9.96 µM) | 1 | 16 | 2 | 4 | 8 (≈ 19.9 µM) | 0.5 (≈ 1.25 µM) | 1 (≈ 2.49 µM) | 0.5 (≈ 1.25 µM) | 0.5 (≈ 1.25 µM) | 0.5 (≈ 1.25 µM) | 2 (≈ 4.98 µM) | 64 | >8 | >8 | >8 | >4 | >8 | 32 | –
